T1: Aurora A (Homo sapiens, UniProt O14965)
T1 sequence (O14965 1-403): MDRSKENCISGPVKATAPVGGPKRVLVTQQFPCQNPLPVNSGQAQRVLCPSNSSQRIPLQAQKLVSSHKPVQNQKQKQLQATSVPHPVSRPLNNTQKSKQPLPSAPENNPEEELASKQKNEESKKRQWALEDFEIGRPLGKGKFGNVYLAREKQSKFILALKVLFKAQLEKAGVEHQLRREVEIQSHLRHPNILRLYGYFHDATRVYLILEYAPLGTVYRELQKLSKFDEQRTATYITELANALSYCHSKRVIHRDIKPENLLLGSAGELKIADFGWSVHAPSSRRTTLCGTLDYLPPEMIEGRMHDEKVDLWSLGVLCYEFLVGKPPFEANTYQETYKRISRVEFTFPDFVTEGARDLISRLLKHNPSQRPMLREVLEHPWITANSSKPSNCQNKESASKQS

T2: TRB2 (Homo sapiens, UniProt Q92519)
T2 sequence (Q92519 1-343): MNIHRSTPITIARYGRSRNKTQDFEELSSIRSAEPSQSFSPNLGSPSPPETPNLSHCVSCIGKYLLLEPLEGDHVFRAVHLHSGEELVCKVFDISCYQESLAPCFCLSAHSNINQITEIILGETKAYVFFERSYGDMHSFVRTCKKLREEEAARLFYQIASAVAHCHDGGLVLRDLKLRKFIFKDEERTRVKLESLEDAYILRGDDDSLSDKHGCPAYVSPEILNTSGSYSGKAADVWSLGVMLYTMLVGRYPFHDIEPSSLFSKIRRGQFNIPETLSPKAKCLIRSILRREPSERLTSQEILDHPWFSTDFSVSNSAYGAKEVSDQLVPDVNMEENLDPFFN

T3: CASK (Homo sapiens, UniProt O14936)
T3 sequence (O14936 1-337): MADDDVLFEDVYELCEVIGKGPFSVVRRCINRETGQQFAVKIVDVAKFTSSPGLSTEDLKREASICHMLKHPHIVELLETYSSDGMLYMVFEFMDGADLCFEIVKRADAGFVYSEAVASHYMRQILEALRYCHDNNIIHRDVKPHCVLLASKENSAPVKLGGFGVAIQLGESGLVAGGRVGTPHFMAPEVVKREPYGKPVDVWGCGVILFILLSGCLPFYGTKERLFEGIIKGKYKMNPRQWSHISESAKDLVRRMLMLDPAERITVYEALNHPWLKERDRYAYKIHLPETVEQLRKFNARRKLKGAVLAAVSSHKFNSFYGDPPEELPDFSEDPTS

T4: TRB2 (Homo sapiens, UniProt Q92519, K90M)
T4 sequence (Q92519 1-343 K90M): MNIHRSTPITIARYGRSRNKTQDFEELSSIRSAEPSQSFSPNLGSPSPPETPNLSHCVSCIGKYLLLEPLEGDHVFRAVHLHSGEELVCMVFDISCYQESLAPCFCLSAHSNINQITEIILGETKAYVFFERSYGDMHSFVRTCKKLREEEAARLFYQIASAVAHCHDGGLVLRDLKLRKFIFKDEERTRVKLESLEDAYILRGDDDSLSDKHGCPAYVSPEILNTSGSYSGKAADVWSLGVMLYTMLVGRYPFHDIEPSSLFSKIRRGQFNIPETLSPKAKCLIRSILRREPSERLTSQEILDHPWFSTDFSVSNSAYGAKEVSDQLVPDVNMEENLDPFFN

T5: TRB2 (Homo sapiens, UniProt Q92519, K90A)
T5 sequence (Q92519 1-343 K90A): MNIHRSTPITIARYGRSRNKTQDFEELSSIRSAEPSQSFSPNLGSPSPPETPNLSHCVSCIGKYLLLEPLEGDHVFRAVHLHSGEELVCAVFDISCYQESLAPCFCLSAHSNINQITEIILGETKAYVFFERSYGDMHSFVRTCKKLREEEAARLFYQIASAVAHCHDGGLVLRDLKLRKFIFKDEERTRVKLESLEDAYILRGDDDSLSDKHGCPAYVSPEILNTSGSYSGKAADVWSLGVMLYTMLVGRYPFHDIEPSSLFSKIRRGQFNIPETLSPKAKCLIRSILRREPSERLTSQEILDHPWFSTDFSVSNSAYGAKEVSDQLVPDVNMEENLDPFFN


Key:
Aurora A = target: T1, Aurora A; assay: intrinsic fluorescence thermal shift; format: binding; conditions: 1 mM ATP, 10 mM Mg2+, no EDTA, TRB buffer pH 9.0
TRB2 [1] = target: T2, TRB2; assay: intrinsic fluorescence thermal shift; format: binding; conditions: 1 mM ATP, 2 mM EDTA, TRB buffer pH 9.0
CASK = target: T3, CASK; assay: Sypro Orange thermal shift; format: binding; conditions: ATP dose series, 2 mM EDTA, TRB buffer pH 9.0
TRB2 [2] = target: T4, TRB2; assay: intrinsic fluorescence thermal shift; format: binding; conditions: 1 mM ATP, 2 mM EDTA, TRB buffer pH 9.0
TRB2 [3] = target: T5, TRB2; assay: intrinsic fluorescence thermal shift; format: binding; conditions: 1 mM ATP, 2 mM EDTA, TRB buffer pH 9.0
purified protein = substrate: Nc1ncnc2c1ncn2[C@@H]1O[C@H](COP(=O)(O)OP(=O)(O)OP(=O)(O)O)[C@@H](O)[C@H]1O; assay: purified protein; format: biochemical, Homo sapiens; conditions: co-substrate histone H3; Mg2+-ATP

Molecule | ΔTm (Aurora A) [°C] | ΔTm (TRB2 [1]) [°C] | ΔTm (CASK) | ΔTm (TRB2 [2]) [°C] | ΔTm (TRB2 [3]) [°C] | Km (purified protein) [µM]
Nc1ncnc2c1ncn2[C@@H]1O[C@H](COP(=O)(O)OP(=O)(O)OP(=O)(O)O)[C@@H](O)[C@H]1O [ATP] | 2.99 | 3.64 | both CASK and TRB2 exhibited demonstrable dose-dependent binding to ATP | 1.59 | 0.23 | 
Aurora A (Homo sapiens) (protein) MDRSKENCISGPVKATAPVGGPKRVLVTQQFPCQNPLPVNSGQAQRVLCPSNSSQRIPLQAQKLVSSHKPVQNQKQKQLQATSVPHPVSRPLNNTQKSKQPLPSAPENNPEEELASKQKNEESKKRQWALEDFEIGRPLGKGKFGNVYLAREKQSKFILALKVLFKAQLEKAGVEHQLRREVEIQSHLRHPNILRLYGYFHDATRVYLILEYAPLGTVYRELQKLSKFDEQRTATYITELANALSYCHSKRVIHRDIKPENLLLGSAGELKIADFGWSVHAPSSRRTTLCGTLDYLPPEMIEGRMHDEKVDLWSLGVLCYEFLVGKPPFEANTYQETYKRISRVEFTFPDFVTEGARDLISRLLKHNPSQRPMLREVLEHPWITANSSKPSNCQNKESASKQS |  |  |  |  |  | 14.3 ± 2.6

Reference: article PMC4844368 (The Biochemical journal, 2015)
